From patent publication US4954482A, “New glycopeptide antibiotic” (Pfizer Inc., priority 1986, dated 1990)

Tested on: rumen fluid
Experiment: In vitro rumen technique: propionic acid production
Format: cell-based, cow
Conditions: 10 micrograms per milliliter; rumen fluid incubated at 39° C. about 16 hours
Experimental: The value of animal feeds has generally been determined directly by feeding the animal. British Patent Specification No. 1,197,826 details an in vitro rumen technique whereby the changes occurring in feeds brought about by microorganisms are measured more readily and with great accuracy in the evaluation of animal feeds. This technique involves the use of an apparatus in which the digestive processes of the animals are conducted and studied in vitro. The animal feeds, rumen inoculum and various growth promotants are introduced into and withdrawn from a laboratory unit under carefully controlled conditions and the changes taken place are studied critically and progressively during the consumption of the feed by the microorganisms. […] The change in propionic acid content is expressed as percent of the propionic acid content found in the control rumen fluid. Long term in vivo feeding studies are used to show a reliable correlation between propionic acid increase in the rumen fluid and improved animal performance. […]
After incubation, 5 ml. of the sample is mixed with 1 ml. of 25% metaphosphoric acid. […] Samples are then analyzed by gas-liquid chromatography by the mthod of D. W. Kellog, J. Dairy Science, 52, 1690, 1969. Peak heights for acetic, propionic and butyric acids are determined for samples from untreated and treated incubation flasks.

CC[C@@H](C(=O)[C@@H](C)[C@@H](O)[C@H](C)[C@@H]1O[C@@H]([C@@H](CC)C(=O)O)CC[C@@H]1C)[C@H]1O[C@]2(C=C[C@@H](O)[C@]3(CC[C@@](C)([C@H]4CC[C@](O)(CC)[C@H](C)O4)O3)O2)[C@H](C)C[C@@H]1C [salinomycin]
increase in the production of propionic acid over control: ~46%
